Assay: Sweetness enhancement taste panel (sweetness and licorice taste ratings of 5% sucrose solutions)
Format: in vivo, human
Settings: taste panel rating on a scale from 0 to 10; compound at 50 ppm in 5% sucrose solution in Henniez water; no flavor modifier = 5.0
Experimental: A test compounds were tested for its sweetness enhancement of a 5% (w/w) aqueous solution of sucrose. Taste panelists were asked to taste the following 5% sucrose solutions in Henniez water and rate their sweetness on a scale from 0 to 10, and to rate the presence of any licorice taste in the sample on a scale from 0 to 10.

With `CC1(C)[C@@H](O[C@@H]2O[C@H](C(=O)O)[C@@H](O)[C@H](O)[C@H]2O)CC[C@]2(C)[C@H]3C(=O)C=C4[C@@H]5C[C@@](C)(C(=O)O)CC[C@]5(C)CC[C@@]4(C)[C@]3(C)CC[C@@H]12` [Compound 108, β-Glycyrrhizin Monoglucuronate] the “Sweetness (0-10)” value was 5.8.
